Laboratory results as given in patent US20240041042A1, “1-(PYRIDYL)-5-AZINYLPYRAZOLE DERIVATIVES, AND THEIR USE FOR CONTROL OF UNDESIRED PLANT GROWTH” (Bayer Aktiengesellschaft, priority 2020, published 2024).
Read-outs that look alike come from different tables or passages of the source.

Experiments:
Assay type in all cases: in vivo
Setaria viridis (SETVI) [1] = assay: Pre-emergence herbicidal action against SETVI
Summary of the method: (§1)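 Greenhouse pot trial: seeds sown, soil-covered, sprayed before emergence with compound in water (0.5% additive; 600 l/ha; ≤320 g/ha). Scoring visual, ~3 weeks, 0–100% scale vs untreated.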

[2] = test system: Matricaria inodora (MATIN); assay: Pre-emergence herbicidal action against MATIN
Summary of the method: as §1

[3] = test system: Echinochloa crus-galli (ECHCG); assay: Post-emergence herbicidal action against ECHCG; details: dosage 80 g/ha
Summary of the method: (§2)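 Greenhouse plants sprayed at the one-leaf stage, 2–3 weeks after sowing, with WP or EC formulations plus 0.5% additive at 600 l/ha water. Activity rated visually after about 3 weeks versus untreated controls (100% = dead, 0% = like control), at 320 g/ha or lower.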

Oryza sativa (ORYSA) = details: crop plant compatibility
Summary of the method: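 Foliar application at the one-leaf stage: WP/EC formulation, 0.5% additive, 600 l/ha water. Greenhouse-grown in sandy loam. Endpoint is visual % injury relative to untreated controls at about 3 weeks.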

Viola tricolor (VIOTR) = assay: Pre-emergence herbicidal action against VIOTR
Summary of the method: as §1

[4] = test system: Echinochloa crus-galli (ECHCG); assay: Pre-emergence herbicidal action against ECHCG
Summary of the method: as §1

[5] = test system: Pharbitis purpurea (PHBPU); assay: Post-emergence herbicidal action against PHBPU; details: dosage 80 g/ha
Summary of the method: as §2

[6] = test system: Pharbitis purpurea (PHBPU); assay: Pre-emergence herbicidal action against PHBPU
Summary of the method: as §1

[7] = test system: Verconica persica (VERPE); assay: Pre-emergence herbicidal action against VERPE
Summary of the method: as §1

[8] = test system: Alopecurus myosuroides (ALOMY); assay: Pre-emergence herbicidal action against ALOMY; details: scored visually after about 3 weeks, 100% = plants have died
Summary of the method: as §1

[9] = test system: Polygonum convolvulus (POLCO); assay: Pre-emergence herbicidal action against POLCO
Summary of the method: as §1

[10] = test system: Amaranthus retroflexus (AMARE); assay: Post-emergence herbicidal action against AMARE; details: 80 g/ha, visual rating about 3 weeks after treatment vs untreated controls (100% = plants have died, 0% = like control plants)
Summary of the method: as §2

[11] = test system: Abutilon theophrasti (ABUTH); assay: Pre-emergence herbicidal action against ABUTH; details: 100% = plants have died
Source text: Seeds of monocotyledonous and dicotyledonous weed plants and crop plants are placed in plastic or organic planting pots and covered with soil. The compounds of the invention, formulated in the form of wettable powders (WP) or as emulsion concentrates (EC), are then applied to the surface of the covering soil as aqueous suspension or emulsion with addition of 0.5% additive at a water application rate equivalent to 600 l/ha. After the treatment, the pots are placed in a greenhouse and kept under good growth conditions for the trial plants. After about 3 weeks, the effect of the preparations is scored visually in comparison with untreated controls as percentages. For example, 100% activity=the plants have died, 0% activity=like control plants.
Tables A1 to A13 below show the effects of selected compounds of the general formula (I) on various harmful plants and at an application rate corresponding to 320 g/ha or lower, which were obtained by the experimental procedure mentioned above. The appendices “a”, “b” and “c” give differentiation by dosage used with otherwise the same harmful plants tested.

Lolium rigidum (LOLRI) [12] = assay: Pre-emergence herbicidal action against LOLRI
Summary of the method: as §1

Lolium rigidum (LOLRI) [13] = assay: Post-emergence herbicidal action against LOLRI; details: dosage 80 g/ha
Summary of the method: as §2

Avena fatua (AVEFA) [14] = assay: Pre-emergence herbicidal action against AVEFA; details: visual scoring after about 3 weeks vs untreated controls
Summary of the method: as §1

[15] = test system: Alopecurus myosuroides (ALOMY); assay: Post-emergence herbicidal action against ALOMY; details: 80 g/ha, visual rating about 3 weeks after treatment vs untreated controls (100% = plants have died, 0% = like control plants)
Summary of the method: as §2

[16] = test system: Amaranthus retroflexus (AMARE); assay: Pre-emergence herbicidal action against AMARE; details: visual scoring after about 3 weeks vs untreated controls
Summary of the method: as §1

Avena fatua (AVEFA) [17] = assay: Post-emergence herbicidal action against AVEFA; details: 80 g/ha, visual rating about 3 weeks after treatment
Summary of the method: as §2

[18] = test system: Abutilon theophrasti (ABUTH); assay: Post-emergence herbicidal action against ABUTH; details: 80 g/ha, visual rating about 3 weeks after treatment vs untreated controls (100% = plants have died, 0% = like control plants)
Summary of the method: as §2

[19] = test system: Verconica persica (VERPE); assay: Post-emergence herbicidal action against VERPE; details: dosage 80 g/ha
Summary of the method: as §2

Setaria viridis (SETVI) [20] = assay: Post-emergence herbicidal action against SETVI; details: dosage 80 g/ha
Summary of the method: as §2

[21] = test system: Polygonum convolvulus (POLCO); assay: Post-emergence herbicidal action against POLCO; details: dosage 80 g/ha
Summary of the method: as §2

[22] = 20 g/ha, effect vs untreated controls
[23] = 80 g/ha, effect in comparison to untreated controls
[24] = Dosage column 320 g/ha (title prints 3200 g/ha), scored visually after about 3 weeks

| Post-emergence action against ORYSA in % (Oryza sativa (ORYSA); [22]) | Post-emergence action against ORYSA in % (Oryza sativa (ORYSA); [23]) | SMILES | Pre-emergence action against SETVI in % (Setaria viridis (SETVI) [1]; dosage 320 g/ha) | Pre-emergence action against MATIN in % ([2]; dosage 80 g/ha) | Pre-emergence action against MATIN in % ([2]; dosage 320 g/ha) | Pre-emergence action against VIOTR in % (Viola tricolor (VIOTR); 320 g/ha, Viola tricolor) | Pre-emergence action against VIOTR in % (Viola tricolor (VIOTR); dosage 80 g/ha) | Pre-emergence action against ECHCG in % ([4]; dosage 320 g/ha) | Post-emergence action against PHBPU in % [5] | Pre-emergence action against PHBPU in % ([6]; dosage 80 g/ha) | Pre-emergence action against PHBPU in % ([6]; dosage 320 g/ha) | Pre-emergence action against VERPE in % ([7]; dosage 80 g/ha) | Pre-emergence action against VERPE in % ([7]; dosage 320 g/ha) | Pre-emergence action against ALOMY ([8]; 80 g/ha) | Pre-emergence action against ALOMY ([8]; 320 g/ha) | Pre-emergence action against POLCO in % ([9]; dosage 320 g/ha) | Post-emergence action against AMARE in % [10] | Pre-emergence action against ABUTH [11, 24] | Pre-emergence action against LOLRI in % (Lolium rigidum (LOLRI) [12]; dosage 80 g/ha) | Pre-emergence action against LOLRI in % (Lolium rigidum (LOLRI) [12]; dosage 320 g/ha) | other results |
| --- | --- | --- | --- | --- | --- | --- | --- | --- | --- | --- | --- | --- | --- | --- | --- | --- | --- | --- | --- | --- | --- |
| 0% | 20% | COC(=O)[C@@H](C)Oc1nn(-c2ccccn2)c(-c2cncc(F)c2)c1Br [Example I-83] | 100% | 90% | 100% | 100% | 100% | 100% | 90% | 80% | 90% | 90% | 100% | 90% | 100% | 90% | 90% | 80% | 100% | 100% | Pre-emergence action against SETVI in % (Setaria viridis (SETVI) [1]; dosage 80 g/ha): 90%; Post-emergence action against ECHCG in % [3]: 90%; Pre-emergence action against POLCO in % ([9]; dosage 80 g/ha): 80%; Post-emergence action against LOLRI in % (Lolium rigidum (LOLRI) [13]): 90%; Pre-emergence action against AVEFA in % (Avena fatua (AVEFA) [14]; 80 g/ha): 80%; Pre-emergence action against AVEFA in % (Avena fatua (AVEFA) [14]; 320 g/ha): 90%; Post-emergence action against ALOMY in % [15]: 100%; Pre-emergence action against AMARE in % ([16]; 80 g/ha): 90%; Pre-emergence action against AMARE in % ([16]; 320 g/ha): 100%; Post-emergence action against AVEFA in % (Avena fatua (AVEFA) [17]): 100%; Post-emergence action against ABUTH in % [18]: 90%; Post-emergence action against VERPE in % [19]: 80%; Post-emergence action against SETVI in % (Setaria viridis (SETVI) [20]): 90% |
| 0% | 0% | C[C@@H](Oc1nn(-c2ccccn2)c(-c2cncc(F)c2)c1Br)C(=O)O [Example I-79] | 100% | 80% | 90% | 100% | 100% | 100% | 80% | 90% | 90% | 80% | 100% | 90% | 100% | 90% | 90% | 90% | 100% | 100% | Pre-emergence action against SETVI in % (Setaria viridis (SETVI) [1]; dosage 80 g/ha): 100%; Post-emergence action against POLCO in % [21]: 80%; Pre-emergence action against ECHCG in % ([4]; dosage 80 g/ha): 80%; Pre-emergence action against POLCO in % ([9]; dosage 80 g/ha): 90%; Pre-emergence action against ABUTH ([11]; 80 g/ha, scored visually after about 3 weeks vs untreated controls, 0% = like control plants): 80%; Pre-emergence action against AVEFA in % (Avena fatua (AVEFA) [14]; 320 g/ha): 100%; Post-emergence action against ALOMY in % [15]: 80%; Pre-emergence action against AMARE in % ([16]; 80 g/ha): 100%; Pre-emergence action against AMARE in % ([16]; 320 g/ha): 100%; Post-emergence action against AVEFA in % (Avena fatua (AVEFA) [17]): 100%; Post-emergence action against ABUTH in % [18]: 80%; Post-emergence action against VERPE in % [19]: 80%; Post-emergence action against SETVI in % (Setaria viridis (SETVI) [20]): 80% |
| 0% | 10% | O=C(O)COc1nn(-c2ccccn2)c(-c2cncc(F)c2)c1Br [Example I-84] | 100% | 90% | 90% | 100% | 90% | 100% | 90% | 90% | 90% | 90% | 100% | 80% | 100% | 90% | 90% | 80% | 90% | 100% | Post-emergence action against POLCO in % [21]: 90%; Post-emergence action against ECHCG in % [3]: 80%; Pre-emergence action against ECHCG in % ([4]; dosage 80 g/ha): 80%; Post-emergence action against LOLRI in % (Lolium rigidum (LOLRI) [13]): 90%; Pre-emergence action against AVEFA in % (Avena fatua (AVEFA) [14]; 80 g/ha): 80%; Pre-emergence action against AVEFA in % (Avena fatua (AVEFA) [14]; 320 g/ha): 90%; Post-emergence action against ALOMY in % [15]: 80%; Pre-emergence action against AMARE in % ([16]; 80 g/ha): 80%; Pre-emergence action against AMARE in % ([16]; 320 g/ha): 100%; Post-emergence action against AVEFA in % (Avena fatua (AVEFA) [17]): 80%; Post-emergence action against ABUTH in % [18]: 80%; Post-emergence action against VERPE in % [19]: 80%; Post-emergence action against SETVI in % (Setaria viridis (SETVI) [20]): 80% |
